Test results: patent publication EP4608400B1, “COMPOUND FOR TREATMENT OF PAIN” (Initiator Pharma A/S, priority 2022, dated 2024)
Counter-ions that a name gives are not always drawn.

Key:
[1] = target: T1, dopamine (DA) reuptake in synaptosomes (Rattus norvegicus, UniProt P23977); conditions: hydrochloride; reported in US 9,133,184 B1; cited from earlier work
T1 construct: in synaptosomes as described in WO 97/16451 (NeuroSearch A/S); from tissue

[2] = target: T2, noradrenaline (NA) reuptake in synaptosomes (Rattus norvegicus, UniProt Q63380); conditions: hydrochloride; reported in US 9,133,184 B1; cited from earlier work
T2 construct: in synaptosomes as described in WO 97/16451 (NeuroSearch A/S); from tissue

[3] = tested on: intradermal capsaicin model; test: Phase I crossover study, intradermal capsaicin model: pharmacodynamics; assay type: in vivo, human
Source text: Participants. The volunteers were males aged 18 to 55 years with a body mass index (BMI) of 18 to 30 kg/m2. They were healthy as determined by a responsible physician, based on a medical evaluation including medical history, physical examination, concomitant medication, vital signs, 12-lead ECG, and clinical laboratory evaluations. The participants must have been in good general health with a skin type compatible with the measures and without significant skin allergies, pigmentary disorders or any active dermatological conditions. […] The participants provided written informed consent, which included compliance with the requirements and restrictions listed in the consent form, including the use of a condom during the trial and for 3 months after their final dose of trial medication, if their partner was a woman of childbearing potential.
Clinical and laboratory data. Prior to and 15, 30, 60, 90 and 120 minutes after administration of capsaicin, measurements of pain, hyperalgesia, allodynia and AF were performed. At 2 hours post-capsaicin injection, subjects completed a quantitative sensory testing (QST) battery at two sites on the volar surface of each forearm. One site was the most recent capsaicin injection site, and the other was at an equivalent point on the opposite forearm. […] There was a minimum washout period of 5 days between treatment periods.
Reconstitution was performed by a Pharmacist at the clinical site prior to dosing.
(§1) In order to maintain the blind, a double dummy approach was used.
Subjects were randomised to receive a single administration of a treatment combination during each treatment period. All subjects received each treatment combination once only.
Evaluation methods: Pharmacodynamics was assessed through pain measurements (response to ID injection of capsaicin, measurement of pain using a visual analogue scale, area and pain score of hyperalgesia, area and pain score of allodynia, and AF) and the ID capsaicin model. Subjects also completed a QST battery at two sites on the volar surface of either forearm. The QST battery included the following tests: thermal detection and pain thresholds, mechanical detection and pain thresholds, stimulus/response functions, wind-up ratio and pressure pain threshold.
For measurement of pain, a visual analogue scale (VAS) was used. The VAS consisted of a 100 mm line, with 0 representing "no pain" and 100 representing "worst pain imaginable". Subjects were asked to mark the VAS using a single vertical stroke at the point they considered to appropriately reflect their level of pain from the injection of capsaicin (not general pain). A new VAS was provided for each time point and subjects were not allowed to see their previous VAS responses. The VAS was scored by measuring from the left-hand end of the scale to the point where the subject had marked the line, and the distance in mm was recorded.
Response to pain was also assessed by a numeric rating scale (NRS). For example, by using an 11-point numeric rating scale ranging from 0 ("no pain") to 10 ("worst possible pain") and asking the subject to rate their pain. A NRS scale of 0 to 100 was also used in some assesments.
The thermal tests were performed using a thermode probe (Medoc). Cold and warm detection thresholds were measured first, then cold pain and heat pain thresholds were determined. The mean threshold temperature of 3 consecutive measurements was calculated. All thresholds were obtained with ramped stimuli (1°C/sec) that were terminated when the subject pressed a button. For thermal detection thresholds the ramp back to baseline was 1°C/sec, while for thermal pain thresholds this ramp was chosen at maximum device capacity resulting in approximately a nominal 5°C/sec.
The mechanical detection threshold was measured with a standardised set of modified von Frey nylons that exerted forces upon bending between 0.25 and 512 mN graded by a factor of 2 (1 to 2 seconds contact time). […]

[4] = Phase I crossover study, intradermal capsaicin model: safety evaluation (TEAEs); assay type: in vivo, human; conditions: 300 mg pregabalin
Description: as §1
Safety was assessed through AE reporting, 12-lead ECG, vital signs, physical examinations and clinical laboratory evaluations. Pharmacokinetics was assessed by blood sampling.

T1 sequence (P23977 whole entry): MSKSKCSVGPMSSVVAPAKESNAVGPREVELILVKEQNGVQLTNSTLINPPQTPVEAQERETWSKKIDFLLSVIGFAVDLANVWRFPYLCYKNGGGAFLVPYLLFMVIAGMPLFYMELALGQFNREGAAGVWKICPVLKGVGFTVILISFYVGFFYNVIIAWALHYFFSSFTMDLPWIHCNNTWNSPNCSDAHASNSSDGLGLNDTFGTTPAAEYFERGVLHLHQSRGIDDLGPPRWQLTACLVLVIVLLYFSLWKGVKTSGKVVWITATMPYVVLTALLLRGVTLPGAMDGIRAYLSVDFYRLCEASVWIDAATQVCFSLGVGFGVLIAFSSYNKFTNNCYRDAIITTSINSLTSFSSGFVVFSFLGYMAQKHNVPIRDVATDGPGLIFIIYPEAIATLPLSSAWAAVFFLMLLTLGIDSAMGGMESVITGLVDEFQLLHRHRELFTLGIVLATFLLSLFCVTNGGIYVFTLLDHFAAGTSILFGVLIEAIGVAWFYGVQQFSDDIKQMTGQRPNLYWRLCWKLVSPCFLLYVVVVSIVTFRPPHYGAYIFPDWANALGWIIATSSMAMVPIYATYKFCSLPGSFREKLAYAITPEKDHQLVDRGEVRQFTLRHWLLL
T2 sequence (Q63380 1-617): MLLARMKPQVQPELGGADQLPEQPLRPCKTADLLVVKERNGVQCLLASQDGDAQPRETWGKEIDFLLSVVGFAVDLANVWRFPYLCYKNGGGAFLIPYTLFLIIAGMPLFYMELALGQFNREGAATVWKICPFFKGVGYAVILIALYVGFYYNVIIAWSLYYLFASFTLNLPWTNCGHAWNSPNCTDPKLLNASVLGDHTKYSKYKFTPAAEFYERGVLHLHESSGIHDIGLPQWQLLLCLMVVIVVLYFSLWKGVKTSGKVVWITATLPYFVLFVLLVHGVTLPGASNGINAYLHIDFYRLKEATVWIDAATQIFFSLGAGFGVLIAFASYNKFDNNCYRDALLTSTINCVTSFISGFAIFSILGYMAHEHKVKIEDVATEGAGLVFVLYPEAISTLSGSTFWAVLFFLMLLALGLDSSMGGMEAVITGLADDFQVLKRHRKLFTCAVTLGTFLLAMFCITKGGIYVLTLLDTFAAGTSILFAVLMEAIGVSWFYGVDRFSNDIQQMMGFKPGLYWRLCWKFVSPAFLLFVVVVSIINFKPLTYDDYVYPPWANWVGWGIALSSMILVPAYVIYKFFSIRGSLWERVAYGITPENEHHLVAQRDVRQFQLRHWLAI

Question: Which IC50 [1] does the source give for `COc1cc2ccc(O[C@@H]3C[C@H]4CC[C@@H](C3)N4)cc2oc1=O` [compound of formula (I) hydrochloride, exo-7-[(8-azabicyclo[3.2.1]octan-3-yl)oxy]-3-methoxy-chromen-2-one hydrochloride] here?
Answer: 70 nM

Question: What about the IC50 [2] of the same compound?
Answer: 3.8 nM

Question: Which “adjusted mean pain score of hyperalgesia compared to placebo” value ([3]; 5 mg and 10 mg IP2015, 300 mg pregabalin, all post-capsaicin injection timepoints) does the source give for `CC(C)C[C@H](CN)CC(=O)O` [pregabalin, reference compound] here?
Answer: lower

Question: And the “average decrease in hyperalgesic area across all timepoints compared to placebo” value ([3]; 300 mg pregabalin)?
Answer: 7.8 cm^2

Question: What about the “Pain Score of Brush-evoked Allodynia Using an NRS, Adjusted Mean (MMRM)” value ([3]; 300 mg pregabalin capsule, overall, all timepoints, N=24, placebo 2.0) of the same compound?
Answer: 1.5

Question: And the “Subjective Rating of Pain, Adjusted Mean (MMRM)” value ([3]; 300 mg pregabalin capsule, overall, all timepoints, N=24, placebo 17.1)?
Answer: 14.4 mm

Question: What about the “decrease of subjective rating of pain compared to placebo” value (from here on “decrease of subjective rating of pain”) ([3]; 300 mg pregabalin, 15 min post capsaicin) of the same compound?
Answer: 1.5 mm

Question: What about the “decrease of subjective rating of pain” value ([3]; 300 mg pregabalin, 30 min post capsaicin) of the same compound?
Answer: 3.8 mm

Question: And the “decrease of subjective rating of pain” value ([3]; 300 mg pregabalin, 60 min post capsaicin)?
Answer: 4.4 mm

Question: What about the “overall increase in warm detection threshold between test and control areas (QST)” value ([3]; 300 mg pregabalin, p = 0.063, post-hoc analysis) of the same compound?
Answer: close to significance

Question: What about the “incidence of TEAEs (share of subjects)” value [4] of the same compound?
Answer: 79.2%

Question: And the “moderate TEAE dizziness” value [4]?
Answer: 1 subject

Question: And the “moderate TEAE mood altered” value [4]?
Answer: 1 subject

Question: And the “number of TEAEs reported” value [4]?
Answer: 28 events

Question: What about the “subjects reporting TEAEs” value [4] of the same compound?
Answer: 19 subjects
